Source: article PMC9636434, “Discovery of small molecule agonists of the Relaxin Family Peptide Receptor 2” (Communications Biology, 2022)
“And” between values parts separate entries of the source, which are not always exact repeats. Identical values can stand only once. Like-named read-outs stand apart in the source and are kept apart here.

Legend:
[1] = Pharmacokinetic study, 3 mg/kg IV, 10 mg/kg PO and 10 mg/kg PO QD*3, plasma, liver and bone; format: in vivo, mouse; details: female, mouse
Protocol: The concentration of compound in plasma, liver, and long bones was detected using liquid chromatography tandem mass spectrometry (LC-MS/MS). Samples were collected after a single intraperitoneal (IP) administration at 30 mg/kg, a single intravenous (IV) administration at 3 mg/kg, a single oral (PO) administration at 10 mg/kg, and a daily PO administration for 3 consecutive days at 10 mg/kg. The compound was formulated in 75% PEG300 + 25% of 40% aq. HPBCD for IV and PO administration and in 60% Phosal + 40% PEG300 for IP administration. All tissue samples were homogenized in water at a tissue weight to water volume ratio 1:3.
IV administration, one 10 mg/kg PO administration and three 10 mg/kg PO administrations (QD*3). a Plasma, b liver and c bone profiles in female mice. The actual concentration (ng/g) is the detected value (ng/mL) multiplied by 4. Drug vehicle is 25% aq. 40% HP-b-CD - 75% PEG300. 3 mice were used per time point. Results are expressed as the mean ± SEM.

[2] = molecular target: T1, human RXFP4 (Homo sapiens, UniProt Q8TDU9); experiment: GloSensor cAMP assay in RXFP4 transiently transfected HEK293T cells; format: cell-based; details: for RLU (cAMP, raw): RXFP4, 0.1 µM isoproterenol, replicates (1)-(4)
T1 construct: host or cells: HEK293T (transient)
T1 sequence (Q8TDU9 whole entry): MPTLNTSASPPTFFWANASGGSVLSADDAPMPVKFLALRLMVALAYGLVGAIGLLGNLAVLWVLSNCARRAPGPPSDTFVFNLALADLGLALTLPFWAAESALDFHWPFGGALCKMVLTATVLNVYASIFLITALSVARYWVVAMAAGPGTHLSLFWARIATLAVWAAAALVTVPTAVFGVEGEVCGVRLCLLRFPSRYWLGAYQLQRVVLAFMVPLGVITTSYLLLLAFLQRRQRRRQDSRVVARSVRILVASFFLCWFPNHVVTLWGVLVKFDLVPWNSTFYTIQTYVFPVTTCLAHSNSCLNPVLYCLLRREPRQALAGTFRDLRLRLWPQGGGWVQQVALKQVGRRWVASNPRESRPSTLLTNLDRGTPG

[3] = molecular target: FPR1 (Homo sapiens, UniProt P21462); experiment: PRESTO-Tango β-arrestin recruitment, FPR1; format: cell-based; details: 10 µM compound; basal level of detection 3-fold RLU
FPR1, sequence (P21462 whole entry): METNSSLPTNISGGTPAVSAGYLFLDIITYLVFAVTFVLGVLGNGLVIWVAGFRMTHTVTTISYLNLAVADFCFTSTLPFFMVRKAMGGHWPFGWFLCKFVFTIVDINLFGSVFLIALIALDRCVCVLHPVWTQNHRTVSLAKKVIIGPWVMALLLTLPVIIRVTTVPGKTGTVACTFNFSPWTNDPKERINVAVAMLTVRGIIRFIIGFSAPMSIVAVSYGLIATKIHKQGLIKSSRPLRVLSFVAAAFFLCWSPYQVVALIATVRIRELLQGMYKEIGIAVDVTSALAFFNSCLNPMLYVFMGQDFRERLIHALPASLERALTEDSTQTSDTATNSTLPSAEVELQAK

## O=C1Nc2ccc(-c3cc(C(F)(F)F)cc(C(F)(F)F)c3)cc2C(=O)N2CCN(C(=O)COc3ccc(OC(F)(F)F)cc3I)C[C@@H]12 [compound 6641]
[1]; C57BL/6 J, liver, po, 10 mg/kg, liver, PO (QD*3), 0.083 h, individual animals, read-out: Liver 6641 PO (QD*3) concentration
  concentration at 0.083 h: 44.1 ng/g
[1]; C57BL/6J, liver, po, 10 mg/kg, liver, PO (QD*3), 1 h, individual animals, read-out: Liver 6641 PO (QD*3) concentration
  concentration at 1 h: 3320 ng/g
[1]; C57BL/6J, liver, po, 10 mg/kg, liver, PO (QD*3), 3 h, individual animals, read-out: Liver 6641 PO (QD*3) concentration
  concentration at 3 h: 1900 ng/g
[1]; C57BL/6 J, liver, po, 10 mg/kg, liver, PO (QD*3), 7 h, individual animals, read-out: Liver 6641 PO (QD*3) concentration
  concentration at 7 h: 1010 ng/g
[1]; C57BL/6 J, liver, po, 10 mg/kg, liver, PO (QD*3), 24 h, individual animals, read-out: Liver 6641 PO (QD*3) concentration
  concentration at 24 h: 32.3 ng/g
[1]; C57BL/6 J, liver, po, 10 mg/kg, liver, PO, 0.083 h, individual animals, N/A: Below detection level, read-out: Liver 6641 PO concentration
  concentration at 0.083 h: 5.14 ng/g
[1]; C57BL/6 J, liver, po, 10 mg/kg, liver, PO, 0.25 h, individual animals, read-out: Liver 6641 PO concentration
  concentration at 0.25 h: 321 ng/g
[1]; C57BL/6J, liver, po, 10 mg/kg, liver, PO, 1 h, individual animals, read-out: Liver 6641 PO concentration
  concentration at 1 h: 3040 ng/g
[1]; C57BL/6J, liver, po, 10 mg/kg, liver, PO, 3 h, individual animals, read-out: Liver 6641 PO concentration
  concentration at 3 h: 1940 ng/g
[1]; C57BL/6 J, liver, po, 10 mg/kg, liver, PO, 7 h, individual animals, read-out: Liver 6641 PO concentration
  concentration at 7 h: 1210 ng/g
[1]; C57BL/6 J, liver, po, 10 mg/kg, liver, PO, 24 h, individual animals, read-out: Liver 6641 PO concentration
  concentration at 24 h: 28.5 ng/g
[1]; C57BL/6 J, liver, po, 10 mg/kg, liver, PO, 48 h, individual animals, read-out: Liver 6641 PO concentration
  concentration at 48 h: 2.88 ng/g
[1]; C57BL/6 J, plasma, iv, 3 mg/kg, IV, Time 0.083 h, individual values (1)-(3), read-out: Plasma concentration
  concentration at 0.083 h: 2030 ng/mL
[1]; C57BL/6 J, plasma, iv, 3 mg/kg, IV, Time 0.25 h, individual values (1)-(3), read-out: Plasma concentration
  concentration at 0.25 h: 1260 ng/mL
[1]; C57BL/6 J, plasma, iv, 3 mg/kg, IV, Time 0.5 h, individual values (1)-(3), read-out: Plasma concentration
  concentration at 0.5 h: 721 ng/mL
[1]; C57BL/6 J, plasma, iv, 3 mg/kg, IV, Time 1 h, individual values (1)-(3), read-out: Plasma concentration
  concentration at 1 h: 343 ng/mL
[1]; C57BL/6 J, plasma, iv, 3 mg/kg, IV, Time 3 h, individual values (1)-(3), read-out: Plasma concentration
  concentration at 3 h: 220 ng/mL
[1]; C57BL/6 J, plasma, iv, 3 mg/kg, IV, Time 7 h, individual values (1)-(3), read-out: Plasma concentration
  concentration at 7 h: 67.6 ng/mL
[1]; C57BL/6 J, plasma, iv, 3 mg/kg, IV, Time 24 h, individual values (1)-(3), read-out: Plasma concentration
  concentration at 24 h: 4.37 ng/mL
[1]; C57BL/6 J, plasma, iv, 3 mg/kg, IV, Time 48 h, individual values (1)-(3), N/A: Below detection level, read-out: Plasma concentration
  concentration at 48 h: 0.874 ng/mL
[1]; C57BL/6 J, plasma, po, 10 mg/kg, PO (QD*3), Time 0.083 h, individual values (1)-(3), read-out: Plasma concentration
  concentration at 0.083 h: 8.04 ng/mL
[1]; C57BL/6 J, plasma, po, 10 mg/kg, PO (QD*3), Time 0.25 h, individual values (1)-(3), read-out: Plasma concentration
  concentration at 0.25 h: 95.9 ng/mL
[1]; C57BL/6 J, plasma, po, 10 mg/kg, PO (QD*3), Time 1 h, individual values (1)-(3), read-out: Plasma concentration
  concentration at 1 h: 336 ng/mL
[1]; C57BL/6 J, plasma, po, 10 mg/kg, PO (QD*3), Time 3 h, individual values (1)-(3), read-out: Plasma concentration
  concentration at 3 h: 264 ng/mL
[1]; C57BL/6 J, plasma, po, 10 mg/kg, PO (QD*3), Time 7 h, individual values (1)-(3), read-out: Plasma concentration
  concentration at 7 h: 144 ng/mL
[1]; C57BL/6 J, plasma, po, 10 mg/kg, PO (QD*3), Time 24 h, individual values (1)-(3), read-out: Plasma concentration
  concentration at 24 h: 5.56 ng/mL
[1]; C57BL/6 J, plasma, po, 10 mg/kg, PO (QD*3), Time 48 h, individual values (1)-(3), N/A: Below detection level, read-out: Plasma concentration
  concentration at 48 h: 1.04 ng/mL
[1]; C57BL/6 J, plasma, po, 10 mg/kg, PO, Time 0.083 h, individual values (1)-(3), N/A: Below detection level, read-out: Plasma concentration
  concentration at 0.083 h: 1.64 ng/mL
[1]; C57BL/6 J, plasma, po, 10 mg/kg, PO, Time 0.25 h, individual values (1)-(3), read-out: Plasma concentration
  concentration at 0.25 h: 43.8 ng/mL
[1]; C57BL/6 J, plasma, po, 10 mg/kg, PO, Time 1 h, individual values (1)-(3), read-out: Plasma concentration
  concentration at 1 h: 369 ng/mL
[1]; C57BL/6 J, plasma, po, 10 mg/kg, PO, Time 3 h, individual values (1)-(3), read-out: Plasma concentration
  concentration at 3 h: 219 ng/mL
[1]; C57BL/6 J, plasma, po, 10 mg/kg, PO, Time 7 h, individual values (1)-(3), read-out: Plasma concentration
  concentration at 7 h: 134 ng/mL
[1]; C57BL/6 J, plasma, po, 10 mg/kg, PO, Time 24 h, individual values (1)-(3), read-out: Plasma concentration
  concentration at 24 h: 4.25 ng/mL
[1]; C57BL/6 J, plasma, po, 10 mg/kg, PO, Time 48 h, individual values (1)-(3), N/A: Below detection level, read-out: Plasma concentration
  concentration at 48 h: 1.39 ng/mL
[2]; Log [M] -4.52
  RLU (cAMP, raw): 2463.26 RLU and 2323.36 RLU and 2574.77 RLU and 2436.25 RLU
[2]; Log [M] -5
  RLU (cAMP, raw): 3185.64 RLU and 3376.11 RLU and 2670.35 RLU and 2223.62 RLU
[2]; Log [M] -5.52
  RLU (cAMP, raw): 2765.92 RLU and 2530.44 RLU and 2513.13 RLU and 2428.63 RLU
[2]; Log [M] -6
  RLU (cAMP, raw): 3247.28 RLU and 3052.66 RLU and 2557.45 RLU and 2549.14 RLU
[2]; Log [M] -6.52
  RLU (cAMP, raw): 2853.88 RLU and 2734.06 RLU and 2619.79 RLU and 2767.31 RLU
[2]; Log [M] -7
  RLU (cAMP, raw): 2986.17 RLU and 3107.38 RLU and 2961.24 RLU and 2947.39 RLU
[2]; Log [M] -7.52
  RLU (cAMP, raw): 3270.14 RLU and 3165.55 RLU and 2781.16 RLU and 2887.13 RLU
[2]; Log [M] -8
  RLU (cAMP, raw): 3594.97 RLU and 2898.21 RLU and 2737.53 RLU and 2621.17 RLU
[2]; Log [M] -8.52
  RLU (cAMP, raw): 2962.83 RLU and 3046.77 RLU and 3010.47 RLU and 2788.15 RLU
[2]; Log [M] -9
  RLU (cAMP, raw): 3689.54 RLU and 3613.16 RLU and 3120.12 RLU and 2641.44 RLU
[2]; Log [M] -9.52
  RLU (cAMP, raw): 3253.97 RLU and 3351.52 RLU and 2965.85 RLU and 3151.88 RLU
[2]; Log [M] -10
  RLU (cAMP, raw): 3784.82 RLU and 3051.3 RLU and 3541.33 RLU and 3042.99 RLU
[2]; Log [M] -10.52
  RLU (cAMP, raw): 2937.88 RLU and 2859.99 RLU and 3018.03 RLU and 2959.05 RLU
[2]; Log [M] -11
  RLU (cAMP, raw): 3244.89 RLU and 3354.54 RLU and 2788.9 RLU and 3100.46 RLU
[2]; Log [M] -11.52
  RLU (cAMP, raw): 3393.86 RLU and 2984 RLU and 2869.06 RLU and 2844.86 RLU
[2]; Log [M] -12
  RLU (cAMP, raw): 3689.54 RLU and 3235.82 RLU and 3343.96 RLU and 2573.39 RLU
[2]; cAMP induced by 0.1 µM isoproterenol
  activation of RXFP4 (cAMP inhibition): does not activate
[3]
  β-arrestin recruitment, FPR1 (mean ± SEM): 3.11 ± 0.29 fold RLU
